How the values were obtained:
human TRPC5 = target: T1, human TRPC5 (Homo sapiens, UniProt Q9UL62); experiment: TRPC5 fluorescence-based assay (Ca2+ flux assay in FLIPR format), cells overexpressing TRPC5; assay type: cell-based; details: 5 μM of test compound, following Carbachol stimulation
T1 construct: expressed in transfected cells; host or cells: HEK 293
T1 sequence (Q9UL62 1-973): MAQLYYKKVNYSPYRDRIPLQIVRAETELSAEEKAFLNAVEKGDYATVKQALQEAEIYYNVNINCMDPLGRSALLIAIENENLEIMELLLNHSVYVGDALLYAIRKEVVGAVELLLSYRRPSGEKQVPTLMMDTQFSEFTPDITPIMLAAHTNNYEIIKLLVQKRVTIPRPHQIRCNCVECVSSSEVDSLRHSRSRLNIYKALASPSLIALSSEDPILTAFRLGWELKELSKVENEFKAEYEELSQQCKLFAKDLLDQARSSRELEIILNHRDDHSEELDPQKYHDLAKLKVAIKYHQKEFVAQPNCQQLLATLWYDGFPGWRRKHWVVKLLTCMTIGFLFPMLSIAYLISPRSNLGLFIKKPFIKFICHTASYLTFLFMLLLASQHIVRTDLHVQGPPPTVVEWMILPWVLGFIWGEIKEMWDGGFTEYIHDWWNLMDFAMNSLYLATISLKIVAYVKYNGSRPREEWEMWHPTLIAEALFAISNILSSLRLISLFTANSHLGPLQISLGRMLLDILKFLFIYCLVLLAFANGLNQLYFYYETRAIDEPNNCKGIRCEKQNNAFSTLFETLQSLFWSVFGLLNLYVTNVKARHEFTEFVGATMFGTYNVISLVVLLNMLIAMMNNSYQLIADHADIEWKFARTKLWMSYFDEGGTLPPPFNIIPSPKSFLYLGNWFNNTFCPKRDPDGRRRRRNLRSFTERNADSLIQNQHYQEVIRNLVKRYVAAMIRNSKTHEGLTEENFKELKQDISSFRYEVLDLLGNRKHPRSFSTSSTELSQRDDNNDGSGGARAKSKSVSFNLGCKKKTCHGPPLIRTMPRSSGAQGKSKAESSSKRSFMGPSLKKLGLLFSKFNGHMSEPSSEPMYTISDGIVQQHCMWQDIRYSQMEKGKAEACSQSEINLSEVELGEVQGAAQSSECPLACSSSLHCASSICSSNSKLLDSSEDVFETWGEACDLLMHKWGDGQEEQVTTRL

human TRPC6 = target: T2, human TRPC6 (Homo sapiens, UniProt Q9Y210); experiment: TRPC6 fluorescence-based assay (Ca2+ flux assay in FLIPR format), cells overexpressing TRPC6; assay type: cell-based; details: 5 μM of test compound, following Carbachol stimulation
T2 construct: expressed in transfected cells; host or cells: HEK 293
T2 sequence (Q9Y210 1-931): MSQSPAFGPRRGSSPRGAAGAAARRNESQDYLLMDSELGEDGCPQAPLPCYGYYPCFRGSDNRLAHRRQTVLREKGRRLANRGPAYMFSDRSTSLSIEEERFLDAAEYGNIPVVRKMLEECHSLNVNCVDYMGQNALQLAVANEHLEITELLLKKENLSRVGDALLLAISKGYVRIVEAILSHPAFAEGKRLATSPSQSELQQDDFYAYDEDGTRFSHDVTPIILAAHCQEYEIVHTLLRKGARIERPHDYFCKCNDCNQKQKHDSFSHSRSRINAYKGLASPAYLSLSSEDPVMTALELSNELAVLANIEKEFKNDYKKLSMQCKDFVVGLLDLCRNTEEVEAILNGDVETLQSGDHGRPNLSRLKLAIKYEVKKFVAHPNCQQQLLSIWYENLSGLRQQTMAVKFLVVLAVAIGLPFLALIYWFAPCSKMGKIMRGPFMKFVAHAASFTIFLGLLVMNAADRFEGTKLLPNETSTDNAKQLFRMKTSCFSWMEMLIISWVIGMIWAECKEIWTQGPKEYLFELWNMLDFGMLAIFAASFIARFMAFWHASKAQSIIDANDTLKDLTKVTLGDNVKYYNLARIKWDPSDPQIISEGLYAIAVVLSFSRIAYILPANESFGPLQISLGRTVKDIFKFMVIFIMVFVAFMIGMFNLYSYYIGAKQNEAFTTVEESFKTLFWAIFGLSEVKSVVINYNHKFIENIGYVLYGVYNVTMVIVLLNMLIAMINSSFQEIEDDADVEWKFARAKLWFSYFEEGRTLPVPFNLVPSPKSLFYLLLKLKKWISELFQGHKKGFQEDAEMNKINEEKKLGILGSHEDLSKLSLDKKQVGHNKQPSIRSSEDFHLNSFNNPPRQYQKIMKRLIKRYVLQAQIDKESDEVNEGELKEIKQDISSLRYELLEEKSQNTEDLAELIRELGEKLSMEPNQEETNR

Row | Inhibition of TRPC5 (A) (human TRPC5; 5 µM) [%] | Inhibition of TRPC6 (A) (human TRPC6; 5 µM) [%] | inhibition at 5 µM (human TRPC5) [%] | inhibition at 5 µM (human TRPC6) [%] | Compound
1 |  |  | 27 | 2.78 | CCC(=O)NCCc1nc2ccccc2n1Cc1ccc(F)cc1
2 |  |  | 61.3 | 21.9 | CCCCCCn1c(NCc2ccccc2O)nc2ccccc21
3 |  |  | 73.4 | 89.9 | COc1ccccc1Cn1c(C)nc2ccccc21
4 |  |  | 39.7 | 27.7 | Cc1ccc(Cn2c(C(C)(C)C)nc3ccccc32)cc1
5 |  |  | 72 | 37.5 | Clc1ccc(Cn2c(NCc3cccs3)nc3ccccc32)cc1
6 |  |  | 77.7 | 80.8 | Cc1nc2ccccc2n1CCNC(=O)c1ccccc1SCc1ccsc1
7 |  |  | 34.9 | 35.3 | CCC(CC)c1nc2ccccc2n1Cc1ccccc1
8 |  |  | 39.7 | 70 | Cc1nc2ccccc2n1CC(=O)Nc1ccc(Cl)cc1

Second part, the compound before the results:

Row | Compound | Inhibition of TRPC5 (A) (human TRPC5; 5 µM) [%] | Inhibition of TRPC6 (A) (human TRPC6; 5 µM) [%] | inhibition at 5 µM (human TRPC5) [%] | inhibition at 5 µM (human TRPC6) [%]
9 | CCCCn1c(NCc2cccs2)nc2ccccc21 [drawing 82] | 65.84 | 72.31 |  | 
10 | CC(C)n1c(NCc2ccccc2)nc2ccccc21 |  |  | 48.4 | 22.4
11 | CCCn1c(NCc2nc3ccccc3n2C)nc2ccccc21 |  |  | 42.8 | -6.21
12 | CC(C)c1ccc(CNc2nc3ccccc3n2C)cc1 |  |  | 50 | 80.6
13 | c1csc(CNc2nc3ccccc3n2CCN2CCCCC2)c1 |  |  | 64.4 | 16.5
14 | CCn1c(NC2CCCCC2)nc2ccccc21 |  |  | 55.5 | 9.58
15 | c1ccc(Cc2nc3ccccc3n2CCCOc2ccccc2)cc1 |  |  | 85.9 | 92.5
16 | Brc1cccc(CNc2nc3ccccc3n2CCN2CCOCC2)c1 |  |  | 45.8 | 18.5
17 | CC(C)CCn1c(-c2ccc(N)cc2)nc2ccccc21 |  |  | 61.1 | 27.2
18 | C=CCn1c(NCc2cccs2)nc2ccccc21 |  |  | 50.7 | 14.6
19 | Cc1ccccc1OCCn1c(C)nc2ccccc21 |  |  | 70 | 76.2
